Assay results reported in patent publication US11202789B2, “Method of treating glycogen storage disease” (Viking Therapeutics, Inc., priority 2016, dated 2021).

Legend:
Assay type in all cases: in vivo
normal (wild type) mice = test: Wild type mice treated alongside the G6PC−/− model (Example 12); conditions: wild type (wt) mice
Method: (§1) Compound 2 was tested in a G6PC−/−mouse model of GSD Ia. Daily injection of 0.1 to 0.2 mL 10% dextrose subcutaneously was initiated within 3 days of age for G6PC−/−mice. All G6PC−/−mice continued to receive daily dextrose injections during this time. Blood was collected at time of euthanasia, when tissues were collected. Two groups of 4 G6PC−/−mice (1 group treated with Compound 2, 1 group treated with vehicle) were analyzed to identify statistically significant differences between Compound 2-treated and vehicle-treated controls. We also treated 2 groups of 3 normal (wild type) mice, one with Compound 2 and one with vehicle.
(§2) Initially the GSD Ia mice were treated with Compound 2 from 5 to 10 days of age. Body mass, liver mass, liver glycogen concentration, liver triglycerides, fasting serum glucose, fasting serum triglycerides, and GSD-related cell signaling pathways were examined. Similarly, groups of GSD Ia mice were treated with vehicle for 5 days to serve as mock-treated controls for all assays. Groups of 3-4 mice were evaluated. GSD Ia mice were treated for >7 days to assess survival and longer-term effects of Compound 2 as described above (GSD Ia mice rarely survive >12 days of life without a therapeutic intervention). Metabolomic analysis of hepatic extracts were performed as described (Sinha, Farah et al. (2013), Hepatology 59(4):1366-80). Acylcarnitine and amino acid profiling were employed to detect any changes related to increased lipolysis and fatty acid beta-oxidation as described by Sinha et al. (Sinha, Farah et al. (2013), Hepatology 59(4):1366-80). […] Mean liver triglyceride content was reduced by more than 60% in Compound 2-treated animals relative to vehicle-treated control animals, while average liver weight was reduced by more than 30% vs. controls. Importantly, average liver weight as a percent of total body weight also declined by approximately 20% in treated vs. control animals. Further, treatment with Compound 2 led to statistically significant reductions in key metabolic markers of GSD Ia.

male ob/ob mice = test: 9-week efficacy and safety study in male ob/ob mice; conditions: for total plasma cholesterol levels lower: after 9 weeks; for liver triglyceride levels lower: at 9 weeks
Method: The objective of this study was to evaluate the efficacy and safety of Compound 2 treatment at doses of 3, 10, and 30 mg/kg/day for 9 weeks in male ob/ob mice. 3,3′,5-Triiodo-L-thyronine (T3) was used as a comparator in this study.
Methods: Seventy-eight adult male ob/ob mice were assigned to six different treatment groups (n=6-24/group). Animals were dosed daily with either vehicle [1% carboxymethylcellulose (CMC) in water, PO], T3 [(100 nmole/kg/day in aqueous solution, subcutaneous (SC)], or Compound 2 [3, 10 or 30 mg/kg/day in 1% CMC, PO]. Blood glucose and plasma cholesterol were measured weekly in all animals. Subsets of animals in the vehicle-treated and 30 mg/kg/day Compound 2-treated groups were sacrificed after 3, 6 and 9 weeks of treatment to analyze the temporal effects of Compound 2 on liver weight and liver triglyceride levels. Liver triglyceride levels, liver glycogen content, heart, liver and epididymal fat pad weights, and plasma clinical chemistry parameters were measured at sacrifice.

G6PC−/− mice [1] = test: G6pc−/− mouse model of GSD Ia, 4 days of treatment (Example 13)
Method: The objective of this study was to determine the ability of Compound 2, a small molecule prodrug of a potent thyroid hormone beta receptor (TBR) agonist, to reduce hepatic steatosis and other metabolic derangements in the glucose-6-phosphatase catalytic subunit knockout (G6pc−/−) mouse model of glycogen storage disease type Ia (GSD Ia).
Mice were treated with Compound 2 or with vehicle, using 4 groups of 6-7 mice: G6pc−/−mice receiving Compound 2, G6pc−/−mice receiving vehicle, Wt mice receiving Compound 2, and WT mice receiving vehicle. Daily injection of 0.1 to 0.2 mL 10% dextrose subcutaneously was initiated at 3 days of age for all mice, and all mice continued to receive daily dextrose injections throughout drug or vehicle treatment. Dextrose was not administered on the day of tissue collection. Mice were treated daily with Compound 2 or with vehicle, respectively, from 5 to 8 days of age. Mice were sacrificed on Day 9, and blood and tissues were collected. The fasting serum glucose and triglycerides, hepatic lipid and glycogen content, and GSD-related cell signaling pathways were examined.

G6PC−/− mice [2] = test: G6PC−/− mouse model of GSD Ia (Example 12)
Method: as §1, §2

[3] = system: male diet-induced obese (DIO) C57Bl/6 mice; test: 2, 5 and 10 week study in mouse model of diet-induced obesity
Method: Objectives: The objectives of this study were to evaluate the effects of 2, 5 and 10 weeks of Compound 2 treatment at doses of 10 and 30 mg/kg/day on total plasma cholesterol levels, blood glucose levels, and hepatic steatosis in a mouse model of diet-induced obesity.
Methods: Male C57Bl/6 mice (4 weeks old) were fed a high-fat diet (60% fat by kcal) for 88 days to induce obesity, hyperlipidemia, and mild hyperglycemia prior to initiation of the study. For the study, 3 groups of mice (n=24-28) were dosed daily by gavage with 10 or 30 mg/kg of Compound 2 or vehicle (0.1% carboxymethylcellulose) and maintained on the same high-fat diet. During treatment, body weight, total plasma cholesterol levels, and blood glucose levels of the animals were measured weekly. Subsets of animals (n=6-12; 30 mg/kg/day) were sacrificed prior to treatment and after 2, 5 and 10 weeks of treatment for analysis of liver weights, liver triglyceride levels and liver histology.

[4] = 10 and 30 mg/kg/day, following 2, 5 and 10 weeks, vs vehicle

Structure (SMILES): Cc1cc(OCP2(=O)OCCC(c3cccc(Cl)c3)O2)cc(C)c1Cc1ccc(O)c(C(C)C)c1 (stereo not drawn) [Compound 2]
- body mass (normal (wild type) mice; vs vehicle-treated controls (FIG. 15)): reduced
- liver mass (normal (wild type) mice; vs vehicle-treated controls (FIG. 16)): reduced
- liver mass as a percentage of body mass (normal (wild type) mice; vs vehicle-treated controls (FIG. 17)): reduced
- liver glycogen levels (normal (wild type) mice; vs vehicle-treated controls (FIG. 18)): significantly reduced
- serum triglycerides (normal (wild type) mice; vs vehicle-treated controls (FIG. 19)): somewhat enhanced
- liver triglyceride concentrations (normal (wild type) mice; vs vehicle-treated controls (FIG. 20)): reduced
- total liver triglycerides (normal (wild type) mice; vs vehicle-treated controls (FIG. 21)): reduced
- total plasma cholesterol levels lower (male ob/ob mice; 3 mg/kg/day PO, vs vehicle): ~43%
- liver glycogen content (male ob/ob mice; 10 mg/kg/day PO, 9 weeks, vs vehicle (FIG. 5)): significantly (p<0.05) higher
- total plasma cholesterol levels lower (male ob/ob mice; 10 mg/kg/day PO, vs vehicle): ~42%
- liver triglyceride levels lower (male ob/ob mice; 10 mg/kg/day PO, vs vehicle): ~39%
- total plasma cholesterol levels lower (male ob/ob mice; 30 mg/kg/day PO, vs vehicle): ~47%
- liver triglyceride levels lower (male ob/ob mice; 30 mg/kg/day PO, vs vehicle): ~46%
- liver triglyceride levels (male ob/ob mice; 30 mg/kg/day PO, from Week 3 onwards, vs vehicle): lower
- terminal liver glycogen levels (male ob/ob mice; Compound 2-treated groups (3, 10, 30 mg/kg/day PO), 9 weeks, vs vehicle): modestly higher or similar
- alanine aminotransferase (ALT) levels (male ob/ob mice; all dose groups (3, 10, 30 mg/kg/day PO)): Decreased
- terminal liver weights (male ob/ob mice; all dose groups (3, 10, 30 mg/kg/day PO), 9 weeks, vs vehicle): lower
- difference in kidney mass as a percentage of total body mass, Compound 2 vs vehicle (G6PC−/− mice [1]; G6pc−/− mice (FIG. 23B)): not significant
- mean total liver triglycerides reduced (G6PC−/− mice [1]; G6pc−/− mice, 4 days of drug treatment, vs vehicle-treated controls, p<0.0001): 69.0%
- mean serum triglyceride concentration (G6PC−/− mice [1]; G6pc−/− mice, drug treatment (vehicle 729.59 mg/dL)): 336.58 mg/dL
- decrease in mean serum triglyceride concentration (G6PC−/− mice [1]; G6pc−/− mice, drug treatment vs vehicle): 54.0%
- mean total liver triglycerides (G6PC−/− mice [1]; G6pc−/− mice, following 4 days of drug treatment (vehicle 13.550 mg)): 4.210 mg
- blood glucose measurements (G6PC−/− mice [1]; G6pc−/− mice, lower detection limit of the glucometer (FIG. 27)): < 20 mg/dL
- mean liver weights (G6PC−/− mice [1]; G6pc−/− mice, treated (control 393.55 mg)): 253.11 mg
- mean liver weights reduced (G6PC−/− mice [1]; G6pc−/− mice, treated vs control, p<0.05): over 30%
- body mass (G6PC−/− mice [1]; daily treatment from 5 to 8 days of age (FIG. 22)): not affected
- kidney mass (G6PC−/− mice [1]; daily treatment from 5 to 8 days of age (FIG. 23)): not affected
- liver glycogen concentration (G6PC−/− mice [1]; under the dosing parameters chosen (FIG. 26)): no significant changes
- serum glucose concentration (G6PC−/− mice [1]; under the dosing parameters chosen (FIG. 27)): no significant changes
- serum triglyceride concentration (G6PC−/− mice [1]; under the dosing parameters chosen (FIG. 28)): no significant changes
- average liver weight reduced (G6PC−/− mice [2]; Compound 2-treated vs controls): more than 30%
- mean liver triglyceride content reduced (G6PC−/− mice [2]; Compound 2-treated vs vehicle-treated control animals): more than 60%
- body mass (G6PC−/− mice [2]; G6PC−/− mice, vs vehicle-treated controls (FIG. 15)): reduced
- liver mass (G6PC−/− mice [2]; G6PC−/− mice, vs vehicle-treated controls (FIG. 16)): reduced
- liver mass as a percentage of body mass (G6PC−/− mice [2]; G6PC−/− mice, vs vehicle-treated controls (FIG. 17)): reduced
- liver glycogen levels (G6PC−/− mice [2]; G6PC−/− mice, vs vehicle-treated controls (FIG. 18)): somewhat enhanced
- serum triglycerides (G6PC−/− mice [2]; G6PC−/− mice, vs vehicle-treated controls (FIG. 19)): somewhat enhanced
- liver triglyceride concentrations (G6PC−/− mice [2]; G6PC−/− mice, vs vehicle-treated controls (FIG. 20)): reduced
- total liver triglycerides (G6PC−/− mice [2]; G6PC−/− mice, vs vehicle-treated controls (FIG. 21)): reduced
- average liver weight as a percent of total body weight declined (G6PC−/− mice [2]; treated vs control animals): approximately 20%
- macrovesicular and microvesicular steatosis (liver histology) ([3]; 30 mg/kg/day, after 2, 5 and 10 weeks, vs vehicle): visually reduced
- blood glucose levels lower ([3]; 10 and 30 mg/kg/day by gavage, most time points, vs vehicle): up to 25%
- total plasma cholesterol levels decreased ([3]; 10 and 30 mg/kg/day by gavage, week 1 through end of study, vs vehicle): more than 50%
- liver weights lower [3, 4]: ~50%
- liver-to-body weight ratios lower [3, 4]: ~40%
- body weight gain ([3]; 10 and 30 mg/kg/day, up to 10 weeks): tended to reduce
- total liver triglyceride content (mg/liver) lower ([3]; 10 and 30 mg/kg/day, weeks 2, 5 and 10, vs vehicle): up to 60%
- liver triglyceride concentrations (mg/g liver) ([3]; 10 or 30 mg/kg/day, any time point, vs vehicle): No significant changes
